# Measurements taken from patent US20110313156A1 (BOEHRINGER INGELHEIM INTERNATIONAL GMBH, priority 2008, published 2011).
# Target: T1, His6-PDK1 (aa 52-556) (Homo sapiens, UniProt O15530)
# T1 construct: 15 μL His6-PDK1 (aa 52-556) 3.33 ng/well); host or cells: baculovirus-infected insect cells
# T1 sequence (O15530 52-556): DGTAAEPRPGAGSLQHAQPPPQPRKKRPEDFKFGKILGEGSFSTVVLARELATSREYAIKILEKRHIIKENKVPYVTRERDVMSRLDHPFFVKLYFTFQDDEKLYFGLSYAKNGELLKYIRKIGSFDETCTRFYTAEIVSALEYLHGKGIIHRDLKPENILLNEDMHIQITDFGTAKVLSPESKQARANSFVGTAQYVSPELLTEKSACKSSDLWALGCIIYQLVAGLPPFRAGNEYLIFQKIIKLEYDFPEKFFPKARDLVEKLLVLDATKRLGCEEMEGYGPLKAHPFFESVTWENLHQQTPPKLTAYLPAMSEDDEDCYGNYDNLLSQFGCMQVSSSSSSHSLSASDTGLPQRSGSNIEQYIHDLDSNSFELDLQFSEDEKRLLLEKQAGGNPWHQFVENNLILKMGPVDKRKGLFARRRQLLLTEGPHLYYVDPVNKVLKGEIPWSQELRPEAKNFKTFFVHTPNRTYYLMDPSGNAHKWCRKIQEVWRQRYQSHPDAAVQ
# Assay: PDK1 kinase assay III (with Tween 20)
# Format: biochemical
# Conditions: compound at 10 μM; PDK1 kinase assay III (values without asterisk); read-out: % CTL (residual activity of the enzyme relative to DMSO control)
# Procedure: Purified enzyme may be obtained for example from the University of Dundee, Scotland.
# Another PDK1 assay was developed which by comparison with PDK1 assay 1 additionally contains Tween 20:
# The final concentration of Tween 20 is 0.005%.
# The reaction is started by adding the ATP solution and the mixture is incubated for 90 min at ambient temperature; at the start of the reaction the dishes are shaken gently. The reaction is stopped by the addition of 50 μL/well of 500 mM phosphoric acid (H3PO4) and incubated for about 20 min at ambient temperature. […] The measured data are evaluated using Graphpad Prism software.
# The % CTL values indicate the residual activity of the enzyme after the addition of the inhibitory compound in the solvent DMSO in relation to the enzyme activity in the solvent DMSO without the addition of a compound (control). The majority of the values were determined using the PDK1 kinase assay III described hereinbefore. The values marked with an asterisk (* or**) were determined using the PDK1 kinase assay II described hereinbefore (one asterisk→incubation for 24 h; two asterisks→incubation for 5 min)
row,SMILES,remaining activity at 10 µM
1,"O=C1Nc2cc(/C=C/CNC(=O)c3cncn(Cc4ccc(F)c(F)c4)c3=O)ccc2/C1=C/c1ncc[nH]1 [I-37, 1-(3,4-difluorobenzyl)-N-{(2E)-3-[(3Z)-3-(1H-imidazol-2-ylmethylidene)-2-oxo-2,3-dihydro-1H-indol-6-yl]prop-2-en-1-yl}-6-oxo-1,6-dihydropyrimidine-5-carboxamide]",16.6%
2,"Cc1c[nH]c(/C=C2\C(=O)Nc3cc(/C=C/CNC(=O)c4cncn(Cc5ccc(F)c(F)c5)c4=O)ccc32)n1 [I-38, 1-(3,4-difluorobenzyl)-N-[(2E)-3-{(3Z)-3-[(4-methyl-1H-imidazol-2-yl)methylidene]-2-oxo-2,3-dihydro-1H-indol-6-yl}prop-2-en-1-yl]-6-oxo-1,6-dihydropyrimidine-5-carboxamide]",20.5%
3,"Cc1nc[nH]c1/C=C1\C(=O)Nc2cc(/C=C/CNC(=O)c3c(C)n(C)n(Cc4ccccc4)c3=O)ccc21 [I-39, 2-benzyl-1,5-dimethyl-N-[(2E)-3-{(3Z)-3-[(4-methyl-1H-imidazol-5-yl)methylidene]-2-oxo-2,3-dihydro-1H-indol-6-yl}prop-2-en-1-yl]-3-oxo-2,3-dihydro-1H-pyrazole-4-carboxamide]",18.6%
4,"Cc1c(C(=O)NC/C=C/c2ccc3c(c2)NC(=O)/C3=C\c2ncc[nH]2)c(=O)n(Cc2ccc(F)c(F)c2)n1C [I-41, 2-(3,4-difluorobenzyl)-N-{(2E)-3-[(3Z)-3-(1H-imidazol-2-ylmethylidene)-2-oxo-2,3-dihydro-1H-indol-6-yl]prop-2-en-1-yl}-1,5-dimethyl-3-oxo-2,3-dihydro-1H-pyrazole-4-carboxamide]",16.6%
5,"Cc1c[nH]c(/C=C2\C(=O)Nc3cc(/C=C/CNC(=O)c4c(C)n(C)n(Cc5ccc(F)c(F)c5)c4=O)ccc32)n1 [I-42, 2-(3,4-difluorobenzyl)-1,5-dimethyl-N-[(2E)-3-{(3Z)-3-[(4-methyl-1H-imidazol-2-yl)methylidene]-2-oxo-2,3-dihydro-1H-indol-6-yl}prop-2-en-1-yl]-3-oxo-2,3-dihydro-1H-pyrazole-4-carboxamide]",15.7%
6,Cn1cc(C(=O)NC/C=C/c2ccc3c(c2)NC(=O)/C3=C\c2cnc[nH]2)c(=O)n(Cc2ccc(F)c(F)c2)c1=O [I-43],20.3%
7,"O=C1Nc2cc(C#CCNC(=O)c3cncn(Cc4ccc(F)c(F)c4)c3=O)ccc2/C1=C/c1cnc[nH]1 [I-44, 1-(3,4-difluorobenzyl)-N-{3-[(3Z)-3-(1H-imidazol-5-ylmethylidene)-2-oxo-2,3-dihydro-1H-indol-6-yl]prop-2-yn-1-yl}-6-oxo-1,6-dihydropyrimidine-5-carboxamide]",15.6%
8,"O=C1Nc2cc(/C=C/CNC(=O)c3cncn(Cc4ccc(F)c(F)c4)c3=O)cc(F)c2/C1=C/c1cnc[nH]1 [I-46, 1-(3,4-difluorobenzyl)-N-{(2E)-3-[(3Z)-4-fluoro-3-(1H-imidazol-5-ylmethylidene)-2-oxo-2,3-dihydro-1H-indol-6-yl]prop-2-en-1-yl}-6-oxo-1,6-dihydropyrimidine-5-carboxamide]",15.6%
9,"Cc1nc[nH]c1/C=C1\C(=O)Nc2cc(/C=C/CNC(=O)c3cncn(Cc4ccc(F)c(F)c4)c3=O)cc(F)c21 [I-47, 1-(3,4-difluorobenzyl)-N-[(2E)-3-{(3Z)-4-fluoro-3-[(4-methyl-1H-imidazol-5-yl)methylidene]-2-oxo-2,3-dihydro-1H-indol-6-yl}prop-2-en-1-yl]-6-oxo-1,6-dihydropyrimidine-5-carboxamide]",17.2%
10,"Cc1c[nH]c(/C=C2\C(=O)Nc3cc(/C=C/CNC(=O)c4cncn(Cc5ccc(F)c(F)c5)c4=O)cc(F)c32)n1 [I-48, 1-(3,4-difluorobenzyl)-N-[(2E)-3-{(3Z)-4-fluoro-3-[(4-methyl-1H-imidazol-2-yl)methylidene]-2-oxo-2,3-dihydro-1H-indol-6-yl}prop-2-en-1-yl]-6-oxo-1,6-dihydropyrimidine-5-carboxamide]",23.1%
11,"NCc1[nH]cnc1/C=C1\C(=O)Nc2cc(/C=C/CNC(=O)c3cncn(Cc4ccc(F)c(F)c4)c3=O)ccc21 [I-49, N-{(2E)-3-[(3Z)-3-{[5-(aminomethyl)-1H-imidazol-4-yl]methylidene}-2-oxo-2,3-dihydro-1H-indol-6-yl]prop-2-en-1-yl}-1-(3,4-difluorobenzyl)-6-oxo-1,6-dihydropyrimidine-5-carboxamide]",12.6%
12,"Cc1c(C(=O)NC/C=C/c2ccc3c(c2)NC(=O)/C3=C\c2nc[nH]c2CN)c(=O)n(Cc2ccc(F)c(F)c2)n1C [I-50, N-{(2E)-3-[(3Z)-3-{[5-(aminomethyl)-1H-imidazol-4-yl]methylidene}-2-oxo-2,3-dihydro-1H-indol-6-yl]prop-2-en-1-yl}-2-(3,4-difluorobenzyl)-1,5-dimethyl-3-oxo-2,3-di-hydro-1H-pyrazole-4-carboxamide]",16.6%

# Second part, the compound after the results:
row,remaining activity at 10 µM,SMILES
1,13%,"Cc1c(C(=O)NCC#Cc2ccc3c(-c4ccc[nH]4)n[nH]c3c2)c(=O)n(Cc2ccc(F)c(F)c2)n1C [II-1, 2-(3,4-difluorobenzyl)-1,5-dimethyl-3-oxo-N-{3-[3-(1H-pyrrol-2-yl)-1H-indazol-6-yl]prop-2-yn-1-yl}-2,3-dihydro-1H-pyrazole-4-carboxamide]"
2,12.5%,"O=C(NCC#Cc1ccc2cn[nH]c2c1)c1cncn(Cc2ccc(F)c(F)c2)c1=O [II-2, 1-(3,4-difluorobenzyl)-N-[3-(1H-indazol-6-yl)prop-2-yn-1-yl]-6-oxo-1,6-dihydropyrimidine-5-carboxamide]"
3,12.4%,"Cc1c(C(=O)NCC#Cc2ccc3cn[nH]c3c2)c(=O)n(Cc2ccc(F)c(F)c2)n1C [II-3, 2-(3,4-difluorobenzyl)-N-[3-(1H-indazol-6-yl)prop-2-yn-1-yl]-1,5-dimethyl-3-oxo-2,3-dihydro-1H-pyrazole-4-carboxamide]"
4,16.9%,"Cc1c(C(=O)NCC#Cc2ccc3c(-c4ccccc4)n[nH]c3c2)c(=O)n(Cc2ccc(F)c(F)c2)n1C [II-4, 2-(3,4-difluorobenzyl)-1,5-dimethyl-3-oxo-N-[3-(3-phenyl-1H-indazol-6-yl)prop-2-yn-1-yl]-2,3-dihydro-1H-pyrazole-4-carboxamide]"
5,22.7%,"Cc1c(C(=O)NCC#Cc2ccc3c(-c4ccco4)n[nH]c3c2)c(=O)n(Cc2ccc(F)c(F)c2)n1C [II-5, 2-(3,4-difluorobenzyl)-N-{3-[3-(furan-2-yl)-1H-indazol-6-yl]prop-2-yn-1-yl}-1,5-dimethyl-3-oxo-2,3-dihydro-1H-pyrazole-4-carboxamide]"
6,21.4%,"Cc1c(C(=O)NC/C=C\c2ccc3c(-c4ccco4)n[nH]c3c2)c(=O)n(Cc2ccc(F)c(F)c2)n1C [II-6, 2-(3,4-difluorobenzyl)-N-{(2Z)-3-[3-(furan-2-yl)-1H-indazol-6-yl]prop-2-en-1-yl}-1,5-dimethyl-3-oxo-2,3-dihydro-1H-pyrazole-4-carboxamide]"
7,27.4%,"Cc1c(C(=O)NC/C=C\c2ccc3cn[nH]c3c2)c(=O)n(Cc2ccc(F)c(F)c2)n1C [II-7, 2-(3,4-difluorobenzyl)-N-[(2Z)-3-(1H-indazol-6-yl)prop-2-en-1-yl]-1,5-dimethyl-3-oxo-2,3-dihydro-1H-pyrazole-4-carboxamide]"
8,16.5%,"Cc1c(C(=O)NCC#Cc2ccc3c(-c4ccc(CN(C)C)cc4)n[nH]c3c2)c(=O)n(Cc2ccc(F)c(F)c2)n1C [II-8, 2-(3,4-difluorobenzyl)-N-[3-(3-{4-[(dimethylamino)methyl]phenyl}-1H-indazol-6-yl)prop-2-yn-1-yl]-1,5-dimethyl-3-oxo-2,3-dihydro-1H-pyrazole-4-carboxamide]"
9,10.7%,"CN(C)Cc1ccc(-c2n[nH]c3cc(C#CCNC(=O)c4cncn(Cc5ccc(F)c(F)c5)c4=O)ccc23)cc1 [II-9, 1-(3,4-difluorobenzyl)-N-[3-(3-{4-[(dimethylamino)methyl]phenyl}-1H-indazol-6-yl)prop-2-yn-1-yl]-6-oxo-1,6-dihydropyrimidine-5-carboxamide]"
10,19.1%,"Cc1c(C(=O)NCC#Cc2ccc3nc(Nc4ccccc4)ncc3c2)c(=O)n(Cc2ccc(F)c(F)c2)n1C [III-15, 2-(3,4-difluorobenzyl)-1,5-dimethyl-3-oxo-N-{3-[2-(phenylamino)quinazolin-6-yl]prop-2-yn-1-yl}-2,3-dihydro-1H-pyrazole-4-carboxamide]"
11,9.5%,"CN(C)Cc1ccc(Nc2ncc3cc(C#CCNC(=O)c4cncn(Cc5ccc(F)c(F)c5)c4=O)ccc3n2)cc1 [III-16, 1-(3,4-difluorobenzyl)-N-{3-[2-({4-[(dimethylamino)methyl]phenyl}amino)quinazolin-6-yl]prop-2-yn-1-yl}-6-oxo-1,6-dihydropyrimidine-5-carboxamide]"
